In publication PMC5384453, “A multi-functional PEGylated gold(III) compound: potent anti-cancer properties and self-assembly into nanostructures for drug co-delivery” (Chemical Science, 2016):
Read-outs that look alike come from different tables or passages of the source.

Tests used:
HeLa = experiment: In vitro cytotoxicity, MTT assay; format: cell-based, human; settings: HeLa
Protocol: (§2) In vitro cytotoxicity assays. HeLa, NCI-H460, HCT116, A2780, A2780cis and
(§3) cells), respectively, were seeded in 96-well plates for 24 h. The cells were then treated with a serial concentration of gold(III) complexes and incubated at 37 °C under a 5% CO2 atmosphere for 72 h. For nanostructures of 1, 2 and NC1, they were dissolved in
(§4) cisplatin were dissolved in culture medium-DMSO solution mixture (99:1, v/v).

NCI-H460 = experiment: In vitro cytotoxicity, MTT assay; format: cell-based, human; settings: NCI-H460, MTT assay, 72 h incubation
Protocol: as §2, §3, §4

HCT116 = experiment: In vitro cytotoxicity, MTT assay; format: cell-based, human; settings: HCT116, MTT assay, 72 h incubation
Protocol: as §2, §3, §4

A2780 = experiment: In vitro cytotoxicity, MTT assay; format: cell-based, human; settings: A2780, MTT assay, 72 h incubation
Protocol: as §2, §3, §4

A2780cis = experiment: In vitro cytotoxicity, MTT assay; format: cell-based, human; settings: for IC50: A2780cis, MTT assay, 72 h incubation; for Resistance found in A2780cis: IC50 of A2780cis cells / IC50 of A2780 cells
Protocol: as §2, §3, §4

A2780adr = experiment: In vitro cytotoxicity, MTT assay; format: cell-based, human; settings: for IC50: A2780adr; for Resistance found in A2780adr: IC50 of A2780adr cells / IC50 of A2780 cells
Protocol: as §2, §3, §4

MIHA = experiment: In vitro cytotoxicity, MTT assay; format: cell-based
Protocol: as §2, §3, §4

NCM460 = experiment: In vitro cytotoxicity, MTT assay; format: cell-based, human; settings: 72 h incubation
Protocol: as §2, §3, §4

CCD-19Lu = experiment: In vitro cytotoxicity, MTT assay; format: cell-based, human; settings: 72 h incubation
Protocol: as §2, §3, §4

CHEM-5 = experiment: In vitro cytotoxicity, MTT assay; format: cell-based, human; settings: CHEM-5, MTT assay, 72 h
Protocol: (§1) page 7: The gold content of the nanocomposites was determined by dissolving the nanocomposites in conc. HNO3 / conc. HCl solution mixture (9:1, v/v; 30 µL), followed by ICP-MS analysis. […] The nanocomposite (10 µL) was dissolved in acetonitrile (90 µL), and subjected to gentle shaking overnight. The solution mixture was then dried under vacuum, and re- dispersed in 0.1 vol% formic acid in water/acetonitrile (7/3, v/v; 1 mL) solution mixture. […] The mobile phase was 0.1 vol% formic acid in water/acetonitrile (7:3, v/v) solution mixture. […] The cells were then treated with a serial concentration of gold(III) complexes and incubated at 37 °C under a 5% CO2 atmosphere for 72 h. […] After incubation for 72 h, MTT in PBS solution (5 mg/mL, 10 μL) was added to each well. The plates were incubated at 37 °C under a 5% CO2 atmosphere for another 4 h, and the cells were lysed by the addition of SDS solution (10%, w/w) with 0.01 M HCl (100 μL). After incubation in dark at 37 °C overnight, the cell viability after treatment was determined by a microtitre plate reader monitoring at the absorbance at 590 nm, P.7 page 8: which reflected the amount of blue formazan formed. IC50 values were then determined by CompuSyn S6 from three independent measurements. Study on the release of hydrolyzed product from 1 and 2 in aqueous buffer solutions by ICP-MS. […] At a predetermined time, an aliquot of solution was removed and dissolved in HNO3/HCl solution mixture (9:1, v/v; volume of aliquot: volume of acid mixture = 1:3). The solution mixture was heated at 65 °C with shaking overnight, and the gold content was determined by ICP-MS from three independent aliquots. […] 37 °C for 24 h. […] Analysis of cell lysate of HCT116 cells treated with complexes 1 and 3 by UPLC- QTOF-MS. […] All the cells were harvested, washed with PBS solution for three times and dispersed in ice-cold water. The cell suspension was then added to ice-cold acetonitrile (1:3, v/v), vortexed for 5 min, and centrifuged at 10,000 rpm at 4 °C. The supernatant was collected, dried under vacuum and the solid was re-dissolved in acetonitrile (HPLC grade) for UPLC- QTOF-MS experiments. The mobile phase was a mixture of 0.1% formic acid in water (phase A) and 0.1% formic acid in acetonitrile (phase B). […] P.46

L02 = experiment: In vitro cytotoxicity, MTT assay; format: cell-based, human; settings: 72 h
Protocol: as §1

HCT116 cells = experiment: Time-dependent induction of apoptosis, Caspase-3/7 Green ReadyProbes fluorescence microscopy; format: cell-based, human; settings: HCT116, NC1 ([1] = 3.5 μM and [DOX] = 0.5 μM) or DOX alone (0.5 μM), Caspase-3/7 Green Reagent
Protocol: B from 20.1 to 25 min and returned to initial conditions and equilibrated for 3 minutes.
The flow rate was 0.4 mL/min and the injection volume was 2 µL. The UPLC-QTOF-MS chromatograms of 1, 3, 4 and solvent control in acetonitrile were also recorded for the interpretation of UPLC-QTOF-MS chromatograms of the cell lysate.
Cellular uptake experiments. HCT116, A2780 and A2780adr (2×10 5 cells), and MIHA and NCM460 (3.5×10 5 cells) cells were grown on 6-well plates at 37 °C under an atmosphere of 5% CO2 for 48 h. The culture medium was then removed, washed with PBS solution, and incubated with culture medium containing nanostructures of 1 […]
Au1a (2 µM; with 1 vol% DMSO). At a predetermined time, the culture medium was removed and washed with PBS solution for three times. The cells were then harvested and dispersed in ice-cold water. An aliquot of the cell suspension was subjected to Bio-rad protein assay with a microtitre plate reader at the absorbance at 595 nm, using bovine serum albumin as the protein standard. […] The solution mixture was heated at 65 °C with shaking overnight, and the gold content was determined by ICP-MS. […]
then removed and washed with PBS solution. The cells were then incubated with culture medium containing nanostructures of 1 (2 µM) and CellEvent Caspase-3/7 Green ReadyProbes Reagent (30 µL), or Au1a (2 µM; with 1 vol% DMSO) and CellEvent Caspase-3/7 Green ReadyProbes Reagent (30 µL) at 37 °C under an atmosphere of 5% CO2. Fluorescence images at different time intervals were recorded by the fluorescence microscope without washing the cells. […]
once every 2–3 days. The tumor volume was calculated by the equation: Volume (mm3) = l×w2/2, where l and w were the length and width of the tumor. At the end of the treatment, the nude mice were sacrificed and the tumor weight was measured. […]
At a predetermined time, the culture medium was removed and washed with PBS solution for three times. […] An aliquot of the cell suspension was subjected to Bio-rad protein assay with a microtitre plate reader at the absorbance at 595 nm, using bovine serum albumin as the protein standard. […]

[1] = MTT assay, 72 h incubation, read-out: IC50
[2] = 72 h, read-out: Total dose at IC50

Row | SMILES | IC50 (HeLa; [1]) [µM] | IC50 (NCI-H460) [µM] | IC50 (HCT116) [µM] | IC50 (A2780) [µM] | IC50 (A2780cis) [µM] | Resistance found in A2780cis (A2780cis) | IC50 (A2780adr; [1]) [µM] | Resistance found in A2780adr (A2780adr) | IC50 (MIHA; [1]) [µM] | IC50 (NCM460) [µM] | IC50 (CCD-19Lu) [µM] | IC50 (CHEM-5) [µM] | IC50 (L02) [µM] | IC50 (HeLa; [2]) [µM] | IC50 (HeLa; read-out: DOX at IC50, 72 h) [µM] | IC50 (A2780adr; [2]) [µM] | IC50 (A2780adr; read-out: DOX at IC50, 72 h) [µM] | IC50 (MIHA; [2]) [µM] | IC50 (MIHA; read-out: DOX at IC50, 72 h) [µM] | incubation time for induction of apoptosis (HCT116 cells) [h]
1 | N.N.[Cl][Pt][Cl] [Cisplatin, cisplatin, reference compound] | 19.8 ± 1.42 | 65.4 ± 5.06 | 15.7 ± 2.2 | 2.59 ± 0.3 | 8.36 ± 0.05 | 3.23 | 12.7 ± 1.83 | 5 | 17.6 ± 1.31 | 12.3 ± 0.87 | 49.1 ± 5.43 | 13 ± 0.2 | 5.9 ± 0.02 | – | – | – | – | – | – | –
2 | COc1cccc2c1C(=O)c1c(O)c3c(c(O)c1C2=O)C[C@@](O)(C(=O)CO)C[C@@H]3O[C@H]1C[C@H](N)[C@H](O)[C@H](C)O1 [DOX, Doxorubicin, reference compound] | 0.57 ± 0.06 | 0.04 ± 0.01 | 0.14 ± 0.02 | 0.05 ± 0.01 | 0.05 ± 0.01 | 1.20 | 0.68 ± 0.05 | 14.3 | 0.1 ± 0.01 | – | – | – | – | 0.57 | 0.57 | 0.68 | 0.68 | 0.1 | 0.1 | 30
